Key:
[1] = Effect of VPA treatment on cell cycles; format: cell-based
Source text: (§1) Therefore, VPA partially reprograms MEFs towards more ES cell-like.

[2] = tested on: MEFs infected with Oct4, Sox2 and Klf4; assay: GFP positive iPS colony number in 3-factor infected MEFs; format: cell-based, mouse
Source text: FIG. 2(c) Representative pictures at 16 days post-infection showing a significant increase of GFP positive iPS colonies in 3-factor infected MEFs with VPA treatment compared to non-treated control.
(§2) Retroviral introduction of c-Myc could cause tumorigenecity in cells derived from the iPS cells thus generated^2. […] Similar low efficiency was also reported for induction of iPS cells from mouse fibroblasts without c-Myc^24. We tested whether treating the cells with 5′-azaC or VPA improves the efficiency of iPS colony formation without the need for c-Myc. MEFs were first infected with Oct4, Sox2 and Klf4, then treated with 5′-azaC or VPA for a week starting 1 day post-infection. […] Consistent with the FACS data, a 30-40 fold increase of GFP positive colonies was observed compared to control MEFs without treatment (FIG. 2c). This allowed for picking of iPS colonies within two weeks post-infection, sooner than the typical ˜30 days post-infection or later without chemical treatment^13, 24.
For the generation of mouse iPS cells, infected MEFs were cultured in mouse ES cell media until iPS colonies were ready to be picked. In some experiments, knockout serum replacement was used instead of the Hyclone FBS in the mouse ES cell media, which appeared to accelerate the reprogramming process, consistent with a recent report^26. […]

[3] = tested on: primary human fibroblasts, BJ and NHDF, infected by Oct4, Sox2 and Klf4; assay: iPS colony induction in 3-factor (Oct4, Sox2, Klf4) infected human fibroblasts; format: cell-based
Source text: AP^+ colonies were compared for 3-factor (Oct4, Sox2 and Klf4) infected BJ fibroblasts with or without VPA treatment at 25 days post-infection.
In the published reprogramming protocol, infected human fibroblasts are typically cultured in fibroblast media first, then reseeded on feeders and switched to hES cell media about a week post-infection. In the modified protocol, human fibroblasts were replated immediately after infection, treated with VPA in hES media, and subsequently cultured in hES media.
The efficiency of iPS colony induction by 3 factors (Oct4, Sox2 and Klf4) and 2 factors (Oct4 and Sox2) with VPA treatment are plotted. Each dot represents one experiment; each bar represents the average for each condition.
Human fibroblasts were first infected by Moloney murine leukemia retroviruses expressing the Oct4, Sox2 and Klf4 genes, and treated with VPA for 1 to 2 weeks.
Human fibroblasts were infected by different transcription factor combinations, and replated in fibroblast medium typically at 2×10^5 cells per well in gelatin-coated 6-well plates at 0 day post-infection. Cells were cultured in hES cell media starting from 1 day post-infection.

iPS-m cell lines = assay: Karyotype (chromosome) analysis of iPS-m cell lines induced by VPA treatment; format: cell-based, mouse
Source text: Supplementary FIG. 4. Chromosome analysis of iPS-m cells. […] Shown here is a representative chromosome analysis image from iPS-m84.
as §1

[4] = tested on: MEFs infected with the four factors (Oct4, Sox2, Klf4 and c-Myc); assay: cells; format: cell-based, mouse; conditions: Mus musculus; 4-factor infected MEFs; dose response; read-out: EC50 of reprogramming efficiency (percentage of Oct4-GFP positive cells induced)
uninfected MEFs = assay: Oct4-GFP induction in uninfected MEFs; format: cell-based, mouse; conditions: VPA treatment alone on uninfected MEFs
Source text: as §1

[5] = tested on: MEFs infected with Oct4, Sox2, Klf4 (but no c-Myc); assay: Reprogramming efficiency of 3-factor infected Oct4-GFP MEFs, FACS analysis; format: cell-based, mouse; conditions: 2 mM for a week; FACS 10 days post-infection; 3-factor infected MEFs
Experimental: FIG. 2(a) MEFs infected with Oct4, Sox2, Klf4 (but no c-Myc) were treated with 5′-azaC (2 μM) or VPA (2 mM) for a week, the percentage of Oct4-GFP positive cells induced was measured through FACS analysis at 10 days post-infection, and compared to infected MEFs without treatment. n=4 for each condition.
as §2
Moloney-based retroviral vector (pMXs) containing the murine complementary DNAs of Oct4, Sox2, c-Myc, and Klf4 were obtained from Addgene^1. […]

[6] = tested on: MEFs infected with the four factors (Oct4, Sox2, Klf4 and c-Myc); format: cell-based, mouse; conditions: 2 mM; 4-factor infected MEFs
Experimental: FIG. 1(a) MEFs infected with the four factors (Oct4, Sox2, Klf4 and c-Myc) were treated with various chemicals for a week, the percentage of Oct4-GFP positive cells induced was measured through FACS analysis, and compared to infected MEFs without treatment or treated with DMSO (the solvent for Dexamethasone, SAHA and TSA). The chemicals used were: 5′-azaC (2 μM), dexamethasone (dex, 1 μM), 5′-azaC (2 μM) together with dexamethasone (1 μM), VPA (2 mM), SAHA (5 μM) and TSA (20 nM). n=4 for each treatment. For all figures in this study, standard deviations are indicated by error bars, and P values by two-tailed student t-test less than 0.05, 0.01 and 0.001 are indicated by one, two and three asterisks respectively.
To quantitate reprogramming efficiency, we established an assay based on Fluorescence-Activated Cell Sorting (FACS) analysis using an Oct4-GFP transgenic reporter, where the expression of the green fluorescent protein (GFP) is controlled by the promoter and enhancers of Oct4, a pluripotent marker gene^14.
MEFs were derived from e13.5 embryos hemizygous for the Oct4-GFP transgenic allele. Embryos were sexed by inspecting gonads for the pattern of Oct4-GFP expression. Gonads and internal organs were removed before processing the embryos for MEF isolation. To generate iPS cells that can be identified in mouse chimeras after blastocyst injection, we derived MEFs from e13.5 embryos that are hemizygous for Oct4-GFP and heterozygous for the Rosa26-lacZ reporter allele. MEFs were grown in DMEM supplemented with 10% FBS, L-glutamine, penicillin/streptoMycin, nonessential amino acids, and sodium pyruvate. MEFs in early passages (up to passage 5) were used for generation of iPS cells.
Moloney-based retroviral vector (pMXs) containing the murine complementary DNAs of Oct4, Sox2, c-Myc, and Klf4 were obtained from Addgene^1. These plasmids were co-transfected into 293T cells with packaging vectors (pUMVC and pCMV-VSVG), and viral supernatants were collected 48 hours post-transfection to infect MEFs. Two to three rounds of infection were performed during a 48 hour period. The first day after viral supernatants were removed was defined as 0 day post-infection. Infected MEFs were subsequently cultured in mouse ES cell media (Knockout DMEM supplemented with 15% Hyclone FBS, L-glutamine, penicillin/streptoMycin, nonessential amino acids, β-mercaptoethanol, and with 1000 U/ml LIF), and treated with small molecules or growth factors for a week starting from 1 or 2 days post-infection. […] All conditions were tested in quadruplicates.

With CCCC(CCC)C(=O)O [VPA, valproic acid] the “effect on cell cycles” value [1] was “does not accelerate cell cycles”, the “increase of GFP positive colonies compared to control MEFs without treatment” value [2] was 30-40 fold and the “promotion of the efficiency of iPS colony formation” value ([3]; human skin cells infected with the three factors) was ~30 fold. For the same compound, the “improvement over the first report on reprogramming by the same 3-factor combination (<0.001%)” value ([3]; optimized induction protocol together with VPA treatment) was 1000 fold, the “iPS-m cell lines with normal karyotypes” value (iPS-m cell lines; iPS-m81, 82, 83 and 84 induced by VPA treatment) was “Three out of four” and the “genetic changes at the level of chromosomal abnormalities” value (iPS-m cell lines; iPS-m cell lines induced with VPA (Table 1)) was “Nor does VPA treatment cause detectable genetic changes”. For the same compound, the EC50 [4] was 1900 µM, the “induction of Oct4-GFP positive cells” value (uninfected MEFs) was “does not induce Oct4-GFP positive cells” and the “improvement of reprogramming efficiency” value [5] was 50 fold. For the same compound, the “improvement over the non-treated control” value [6] was “more than 100 fold”.

— patent publication US20110014164A1, “EFFICIENT INDUCTION OF PLURIPOTENT STEM CELLS USING SMALL MOLECULE COMPOUNDS” (PRESIDENT AND FELLOWS OF HARVARD COLLEGE, priority 2008, published 2011)
